The source of these data is US8481527B2, “Benzamide derivatives as bradykinin antagonists” (Richter Gedeon Nyrt., priority 2006, dated 2013).

The target of assay [1] is T1, recombinant human B1 receptors (Homo sapiens, UniProt P46663).
T1 construct: host or cells: CHO (CHO-B1)
T1 sequence (P46663 1-353): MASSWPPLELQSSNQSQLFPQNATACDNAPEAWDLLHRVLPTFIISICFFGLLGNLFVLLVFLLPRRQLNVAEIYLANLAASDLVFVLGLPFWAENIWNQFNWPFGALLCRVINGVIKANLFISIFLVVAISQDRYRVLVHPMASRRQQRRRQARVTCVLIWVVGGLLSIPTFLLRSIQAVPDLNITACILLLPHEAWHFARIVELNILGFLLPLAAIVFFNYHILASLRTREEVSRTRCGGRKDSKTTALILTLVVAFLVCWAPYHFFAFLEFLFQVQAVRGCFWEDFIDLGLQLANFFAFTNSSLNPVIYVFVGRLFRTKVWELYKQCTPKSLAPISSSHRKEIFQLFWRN
Put plainly: Functional assay: antagonist potency by cytosolic calcium measurement in CHO-B1 cells (agonist LysDABK). It counts as cell-based. The following applies: CHO-B1 cells, LysDABK at EC80, fluo-4 [Ca2+]i; read-out: B1 func. On the procedure:
Assessment of Antagonist Potency at B1 and B2 Receptors In Vitro by Measurement of Cytosolic Calcium Ion Concentration with a Plate Reader Fluorimeter in Cells Expressing Recombinant Human B1 or B2 Receptors
Chinese hamster ovary (CHO) cells stably expressing recombinant human B1 (CHO-B1, Euroscreen) or B2 (CHO-B2, Perkin-Elmer) receptors were cultured in Dulbecco's Modified Eagle's Medium (DMEM) containing 10% Fetal Calf Serum (FCS), 100 U/ml penicillin, 0.1 mg/ml streptomycin, 0.25 μg/ml amphotericin B, 1% Minimum Essential Medium Eagle (MEM), non essential amino acid solution, 600 μg/ml G418, 1% pyruvate (for the B2 cell line). Cells were kept at 37° C. in a humidified incubator in an atmosphere of 5% CO2/95% air and were passaged 1:4 three times a week. Cells were plated at 1.5-2.5×10^4 cell/well on standard 96-well microplates, measurements of cytosolic calcium ion concentration ([Ca^2+]i) were carried out 1-2 days after cell plating.
Measurements of [Ca^2+]i were carried out on CHO-B1 and CHO-B2 cells stably expressing human B1 and B2 receptors, respectively. Cells were grown in standard 96-well microplates and before the measurement were loaded with a fluorescent Ca^2+-sensitive dye, fluo-4/AM (2 μM): after removing the culture medium the dye was added to the cells (dissolved in assay buffer: 145 mM NaCl, 5 mM KCl, 2 mM MgCl2, 2 mM CaCl2, 10 mM HEPES, 20 mM D-glucose, 2 mM probenecid, 100 μl/well) and cells were incubated at 37° C. in a humidified incubator in an atmosphere of 5% CO2/95% air for 40-120 min. To stop dye loading cells were washed twice with assay buffer. After washing, various concentrations of the test compounds (diluted in extracellular medium from a DMSO stock solution, final DMSO concentration was <0.1%) or buffer were added to each well depending on the experimental setup. After incubation at 37° C. for 20-25 min. baseline and agonist-evoked changes of [Ca^2+]i were measured column by column with a plate reader fluorimeter (Fluoroskan Ascent, Labsystems). Excitation and detection of emission was carried out from the bottom of the plate. Filters used for Fluo-4: excitation filter—485 nm, emission filter—538 nm. The whole measurement process was performed at 37° C. and was controlled by custom software. Inhibitory potency of the test compounds was assessed by measuring the reduction in the agonist-evoked [Ca^2+]i-elevation in the presence of different concentrations of the compounds. The agonists were LysDABK for CHO-B1, and bradykinin for CHO-B2 cells. Agonists were applied at an EC80 concentration, the EC80-values were derived from daily determined dose-response curves. Fluorescence data were expressed as ΔF/F (fluorescence change normalized to baseline). All treatments on a single plate were measured in multiple wells. Data from all wells with the same treatment were averaged and the average values were used for analysis. Inhibitory potency of a compound at a single concentration point was expressed as percent inhibition of the control agonist response. Sigmoidal concentration-inhibition curves were fitted to the data (derived from at least three independent experiments) and IC50-values were determined as the concentration that produces half of the maximal inhibition caused by the compound.

In assay [2] the target is T2, human recombinant bradykinin B1 receptor (Homo sapiens, UniProt P46663).
T2 construct: purchased Euroscreen ES-091; host or cells: CHO cells
T2 sequence (P46663 1-353): T1 sequence (P46663 1-353)
Kind of assay: Human recombinant bradykinin B1 receptor binding. The following applies: CHO cell membranes, [3H]-[Des-Arg10] Kallidin radioligand; read-out: B1 binding. How it is done: Receptor Binding Assays 1. Human Recombinant Bradykinin B1 Receptor Binding
Binding assays were carried out on human recombinant bradykinin) receptors (expressed in CHO cells) according to the Euroscreen Technical Data Sheet (Cat.No.:ES-091). 20 μg protein/tube was incubated with [3,4-prolyl-3,4-^3H(N)]-[Des-Arg^10] Kallidin as radioligand. Non specific binding was determined in the presence of 10 μM Lys-des-Arg^9-Bradykinin. The final incubation volume was 250 μl. Samples were incubated for 15 min. at 25° C. then were rapidly vacuum filtered through GF/B filters presoaked for at least 1 h in 0.5% PEI. Radioactivity was determined by liquid scintillation spectroscopy.

pIC50, pKi: −log10 of the molar value.

In the case of `O=C(NCC(=O)N1CCN(CCCN2CCCC2)CC1)c1ccc(S(=O)(=O)Nc2ccccc2Oc2ccccc2)cc1` [Example 2.5, N-{2-Oxo-2-[4-(3-pyrrolidin-1-yl-propyl)-piperazin-1-yl]-ethyl}-4-(2-phenoxy-phenylsulfamoyl)-benzamide], the pIC50 in assay [1] was greater than 7.70. In assay [2], the pKi was greater than 7.70.

With `CN(C)CCCN1CCN(C(=O)CNC(=O)c2ccc(S(=O)(=O)Nc3ccccc3Oc3ccccc3)cc2)CC1` [Example 2.6, N-{2-[4-(3-Dimethylamino-propyl)-piperazin-1-yl]-2-oxo-ethyl}-4-(2-phenoxy-phenylsulfamoyl)-benzamide], the pIC50 in assay [1] was greater than 7.70. Also, the pKi in assay [2] is greater than 7.70.

In the case of `O=C(NCC(=O)N1CCC(CCN2CCCC2)CC1)c1ccc(S(=O)(=O)Nc2ccccc2Oc2ccccc2)cc1` [Example 2.7, N-{2-Oxo-2-[4-(2-pyrrolidin-1-yl-ethyl)-piperidin-1-yl]-ethyl}-4-(2-phenoxy-phenylsulfamoyl)-benzamide], the pIC50 in assay [1] is greater than 7.70. In assay [2], the pKi was greater than 7.70.

With `O=C(NCC(=O)N1CCC(O)CC1)c1ccc(S(=O)(=O)Nc2ccccc2Oc2ccccc2)cc1` [Example 2.10, N-[2-(4-Hydroxy-piperidin-1-yl)-2-oxo-ethyl]-4-(2-phenoxy-phenylsulfamoyl)-benzamide], the pIC50 in assay [1] is 7.00 to 7.70. Moreover, the pKi in assay [2] is 7.00 to 7.70.

In the case of `NC(=O)C1CCN(C(=O)CNC(=O)c2ccc(S(=O)(=O)Nc3ccccc3Oc3ccccc3)cc2)CC1` [Example 2.15, 1-{2-[4-(2-Phenoxy-phenylsulfamoyl)-benzoylamino]-acetyl}-piperidine-4-carboxylic acid amide], in assay [1], the pIC50 was 7.00 to 7.70. Further, the pKi in assay [2] was 7.00 to 7.70.

For `O=C(NCC(=O)N1CCC(CO)CC1)c1ccc(S(=O)(=O)Nc2ccccc2Oc2ccccc2)cc1` [Example 2.22, N-[2-(4-Hydroxymethyl-piperidin-1-yl)-2-oxo-ethyl]-4-(2-phenoxy-phenylsulfamoyl)-benzamide], in assay [1], the pIC50 is greater than 7.70. The pKi in assay [2] was greater than 7.70.

For `CN1CCC(N2CCN(C(=O)CNC(=O)c3ccc(S(=O)(=O)Nc4ccccc4Oc4ccccc4)cc3)CC2)CC1` [Example 2.34, N-{2-[4-(1-Methyl-piperidin-4-yl)-piperazin-1-yl]-2-oxo-ethyl}-4-(2-phenoxy-phenylsulfamoyl)-benzamide], in assay [1], the pIC50 is greater than 7.70. In addition, in assay [2], the pKi is greater than 7.70.

For `O=C(NCC(=O)N1CCN(CCN2CCCC2)CC1)c1ccc(S(=O)(=O)Nc2ccccc2C(=O)c2ccccc2)cc1` [Example 3.1, 4-(2-Benzoyl-phenylsulfamoyl)-N-{2-oxo-2-[4-(2-pyrrolidin-1-yl-ethyl)-piperazin-1-yl]-ethyl}-benzamide], the pIC50 in assay [1] was greater than 7.70. For the same molecule, the pKi in assay [2] was greater than 7.70.

For `CN(C)CCN1CCN(C(=O)CNC(=O)c2ccc(S(=O)(=O)Nc3ccccc3C(=O)c3ccccc3)cc2)CC1` [Example 3.2, 4-(2-Benzoyl-phenylsulfamoyl)-N-{2-[4-(2-dimethylamino-ethyl)-piperazin-1-yl]-2-oxo-ethyl}-benzamide], the pIC50 in assay [1] is greater than 7.70. Also, the pKi in assay [2] was greater than 7.70.

`O=C(NCC(=O)N1CCCCC1)c1ccc(S(=O)(=O)Nc2ccccc2C(=O)c2ccccc2)cc1` [Example 3.3, 4-(2-Benzoyl-phenylsulfamoyl)-N-(2-oxo-2-piperidin-1-yl-ethyl)-benzamide]: the pIC50 in assay [1] is greater than 7.70. In addition, in assay [2], the pKi is greater than 7.70.

In the case of `O=C(NCC(=O)N1CCCCCC1)c1ccc(S(=O)(=O)Nc2ccccc2C(=O)c2ccccc2)cc1` [Example 3.4, N-(2-Azepan-1-yl-2-oxo-ethyl)-4-(2-benzoyl-phenylsulfamoyl)-benzamide], the pIC50 in assay [1] was greater than 7.70. Further, the pKi in assay [2] is greater than 7.70.

As for `N#CC1CCN(C(=O)CNC(=O)c2ccc(S(=O)(=O)Nc3ccccc3C(=O)c3ccccc3)cc2)CC1` [Example 3.5, 4-(2-Benzoyl-phenylsulfamoyl)-N-[2-(4-cyano-piperidin-1-yl)-2-oxo-ethyl]-benzamide], the pIC50 in assay [1] was greater than 7.70. For the same molecule, in assay [2], the pKi was greater than 7.70.

For the molecule `O=C(NCC(=O)N1CCC(C(F)(F)F)CC1)c1ccc(S(=O)(=O)Nc2ccccc2C(=O)c2ccccc2)cc1` [Example 3.6, 4-(2-Benzoyl-phenylsulfamoyl)-N-[2-oxo-2-(4-trifluoromethyl-piperidin-1-yl)-ethyl]-benzamide], in assay [1], the pIC50 is greater than 7.70. Also, the pKi in assay [2] was greater than 7.70.

`CC1CCN(C(=O)CNC(=O)c2ccc(S(=O)(=O)Nc3ccccc3C(=O)c3ccccc3)cc2)CC1` [Example 3.7, 4-(2-Benzoyl-phenylsulfamoyl)-N-[2-(4-methyl-piperidin-1-yl)-2-oxo-ethyl]-benzamide]: the pIC50 in assay [1] is greater than 7.70. Besides, the pKi in assay [2] is greater than 7.70.

Turning to `CN1CCCC(CN2CCN(C(=O)CNC(=O)c3ccc(S(=O)(=O)Nc4ccccc4C(=O)c4ccccc4)cc3)CC2)C1` (stereo not shown) [Example 3.8, 4-(2-Benzoyl-phenylsulfamoyl)-N-{2-[4-(1-methyl-piperidin-3-ylmethyl)-piperazin-1-yl]-2-oxo-ethyl}-benzamide], the pIC50 in assay [1] is greater than 7.70. Also, the pKi in assay [2] was greater than 7.70.

As for `O=C(NCC(=O)N1CCC(CO)CC1)c1ccc(S(=O)(=O)Nc2ccccc2C(=O)c2ccccc2)cc1` [Example 3.9, 4-(2-Benzoyl-phenylsulfamoyl)-N-[2-(4-hydroxymethyl-piperidin-1-yl)-2-oxo-ethyl]-benzamide], the pIC50 in assay [1] is greater than 7.70. In addition, the pKi in assay [2] was greater than 7.70.

For the molecule `O=C(NCC(=O)N1CCC(CCO)CC1)c1ccc(S(=O)(=O)Nc2ccccc2C(=O)c2ccccc2)cc1` [Example 3.10, 4-(2-Benzoyl-phenylsulfamoyl)-N-{2-[4-(2-hydroxy-ethyl)-piperidin-1-yl]-2-oxo-ethyl}-benzamide], the pIC50 in assay [1] was greater than 7.70. For the same molecule, the pKi in assay [2] is greater than 7.70.

As for `O=C(NCC(=O)N1CCN(CCCN2CCCC2)CC1)c1ccc(S(=O)(=O)Nc2ccccc2C(=O)c2ccccc2)cc1` [Example 3.13, 4-(2-Benzoyl-phenylsulfamoyl)-N-{2-oxo-2-[4-(3-pyrrolidin-1-yl-propyl)-piperazin-1-yl]-ethyl}-benzamide], the pIC50 in assay [1] is greater than 7.70. Besides, in assay [2], the pKi is greater than 7.70.

`CN(C)CCCN1CCN(C(=O)CNC(=O)c2ccc(S(=O)(=O)Nc3ccccc3C(=O)c3ccccc3)cc2)CC1` [Example 3.14, 4-(2-Benzoyl-phenylsulfamoyl)-N-{2-[4-(3-dimethylamino-propyl)-piperazin-1-yl]-2-oxo-ethyl}-benzamide]: the pIC50 in assay [1] is greater than 7.70. In addition, the pKi in assay [2] was greater than 7.70.

Take `O=C(NCC(=O)N1CCC(CCN2CCCC2)CC1)c1ccc(S(=O)(=O)Nc2ccccc2C(=O)c2ccccc2)cc1` [Example 3.15, 4-(2-Benzoyl-phenylsulfamoyl)-N-{2-oxo-2-[4-(2-pyrrolidin-1-yl-ethyl)-piperidin-1-yl]-ethyl}-benzamide]: in assay [1], the pIC50 is greater than 7.70. Further, the pKi in assay [2] was greater than 7.70.
